# Data taken from patent publication US8846947B2, “Benzimidazoles and related analogs as sirtuin modulators” (GlaxoSmithKline LLC, priority 2008, dated 2014).
# Target: T1, SIRT1 (Homo sapiens, UniProt Q96EB6)
# T1 sequence (Q96EB6 1-747): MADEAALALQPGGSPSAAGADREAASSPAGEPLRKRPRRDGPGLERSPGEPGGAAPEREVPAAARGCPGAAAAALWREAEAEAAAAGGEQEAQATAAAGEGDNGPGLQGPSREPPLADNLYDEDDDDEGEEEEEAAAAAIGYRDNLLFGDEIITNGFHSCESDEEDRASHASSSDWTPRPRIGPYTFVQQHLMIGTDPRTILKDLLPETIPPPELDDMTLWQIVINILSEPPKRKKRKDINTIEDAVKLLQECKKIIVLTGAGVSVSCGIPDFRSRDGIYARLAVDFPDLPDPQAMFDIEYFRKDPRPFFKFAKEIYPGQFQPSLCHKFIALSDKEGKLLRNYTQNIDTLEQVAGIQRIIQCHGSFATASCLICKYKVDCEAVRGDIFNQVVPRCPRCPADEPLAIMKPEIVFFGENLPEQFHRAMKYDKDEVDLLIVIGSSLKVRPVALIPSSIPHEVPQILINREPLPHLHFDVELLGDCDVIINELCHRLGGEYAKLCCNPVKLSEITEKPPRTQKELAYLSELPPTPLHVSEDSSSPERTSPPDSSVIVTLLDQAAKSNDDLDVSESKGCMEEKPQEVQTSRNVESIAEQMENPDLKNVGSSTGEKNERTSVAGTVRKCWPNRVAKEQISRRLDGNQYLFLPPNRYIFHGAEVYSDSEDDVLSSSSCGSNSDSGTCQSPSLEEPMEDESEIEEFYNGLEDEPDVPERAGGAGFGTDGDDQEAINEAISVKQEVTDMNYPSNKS
# Assay: Mass spectrometry based SIRT1 deacetylase activation assay (acetylated p53-derived peptide substrate)
# Assay type: biochemical
# Details: 0.5 μM peptide substrate, 120 μM βNAD+, 10 nM SIRT1, 25 minutes at 25° C.
SMILES,EC1.5,Fold Act. (percent maximum fold activation)
O=C(Nc1ccc(CN2CCCC2)cc1)c1cccc2[nH]c(-c3ccc(F)cc3C(F)(F)F)nc12 [Compound 813],A (EC1.5<1.0 uM),A (Fold activation >200%)
"Cc1ncccc1-c1nc2c(C(=O)Nc3cccc(CN4CCOCC4)n3)cccc2[nH]1 [Compound 814, 2-(2-methylpyridin-3-yl)-N-(6-(morpholinomethyl)pyridin-2-yl)-1H-benzo[d]imidazole-4-carboxamide]",A (EC1.5<1.0 uM),A (Fold activation >200%)
"Cc1ccc(-c2nc3c(C(=O)Nc4cccc(CN5CCOCC5)n4)cccc3[nH]2)cn1 [Compound 815, 2-(6-methylpyridin-3-yl)-N-(6-(morpholinomethyl)pyridin-2-yl)-1H-benzo[d]imidazole-4-carboxamide]",A (EC1.5<1.0 uM),A (Fold activation >200%)
"Cc1cc(-c2nc3c(C(=O)Nc4cccc(CN5CCOCC5)n4)cccc3[nH]2)ccn1 [Compound 816, 2-(2-methylpyridin-4-yl)-N-(6-(morpholinomethyl)pyridin-2-yl)-1H-benzo[d]imidazole-4-carboxamide]",A (EC1.5<1.0 uM),A (Fold activation >200%)
O=C(Nc1cccc(CN2CCOCC2)n1)c1cccc2[nH]c(-c3ccccc3C(F)F)nc12 [Compound 817],A (EC1.5<1.0 uM),A (Fold activation >200%)
O=C(Nc1cccc(CN2CCOCC2)n1)c1cccc2[nH]c(-c3ccc(F)cc3C(F)F)nc12 [Compound 818],A (EC1.5<1.0 uM),A (Fold activation >200%)
O=C(Nc1cccc(CN2CCOCC2)n1)c1cccc2[nH]c(-c3ccc(Cl)cc3C(F)F)nc12 [Compound 819],A (EC1.5<1.0 uM),A (Fold activation >200%)
O=C(Nc1nc(CN2CCOCC2)cs1)c1cccc2[nH]c(-c3cc(F)cc(F)c3)nc12 [Compound 820],B (EC1.5 1-25 uM),A (Fold activation >200%)
O=C(Nc1nccs1)c1cc(F)cc2nc(-c3ccc(Cl)cc3C(F)F)[nH]c12 [Compound 821],A (EC1.5<1.0 uM),A (Fold activation >200%)
Cc1cnc(NC(=O)c2cc(F)cc3nc(-c4ccc(Cl)cc4C(F)F)[nH]c23)s1 [Compound 822],A (EC1.5<1.0 uM),A (Fold activation >200%)
O=C(Nc1ccccn1)c1cc(F)cc2nc(-c3ccc(Cl)cc3C(F)F)[nH]c12 [Compound 823],A (EC1.5<1.0 uM),A (Fold activation >200%)
O=C(Nc1nccs1)c1cc(F)cc2nc(-c3ccc(F)cc3C(F)F)[nH]c12 [Compound 824],A (EC1.5<1.0 uM),A (Fold activation >200%)
Cc1cnc(NC(=O)c2cc(F)cc3nc(-c4ccc(F)cc4C(F)F)[nH]c23)s1 [Compound 825],A (EC1.5<1.0 uM),A (Fold activation >200%)
O=C(Nc1ccccn1)c1cc(F)cc2nc(-c3ccc(F)cc3C(F)F)[nH]c12 [Compound 826],A (EC1.5<1.0 uM),A (Fold activation >200%)
"O=C(Nc1nccs1)c1cccc2[nH]c(-c3ccc(CN4CCCC4)cc3C(F)(F)F)nc12 [Compound 828, 2-(4-(pyrrolidin-1-ylmethyl)-2-(trifluoromethyl)phenyl)-N-(thiazol-2-yl)-1H-benzo[d]imidazole-4-carboxamide]",A (EC1.5<1.0 uM),A (Fold activation >200%)
O=C(Nc1cccnc1)c1cc(F)cc2[nH]c(-c3ccc(OC[C@H](O)CO)cc3C(F)F)nc12 [Compound 829],A (EC1.5<1.0 uM),A (Fold activation >200%)
O=C(Nc1ccccn1)c1cc(F)cc2[nH]c(-c3ccc(OC[C@H](O)CO)cc3C(F)F)nc12 [Compound 830],A (EC1.5<1.0 uM),A (Fold activation >200%)
O=C(Nc1nccs1)c1cc(F)cc2[nH]c(-c3ccc(OC[C@@H](O)CO)cc3C(F)F)nc12 [Compound 831],A (EC1.5<1.0 uM),A (Fold activation >200%)
O=C(Nc1nccs1)c1cc(F)cc2nc(-c3ccccc3C(F)F)[nH]c12 [Compound 832],A (EC1.5<1.0 uM),A (Fold activation >200%)
Cc1cnc(NC(=O)c2cc(F)cc3nc(-c4ccccc4C(F)F)[nH]c23)s1 [Compound 833],A (EC1.5<1.0 uM),A (Fold activation >200%)
O=C(Nc1ccccn1)c1cc(F)cc2nc(-c3ccccc3C(F)F)[nH]c12 [Compound 834],A (EC1.5<1.0 uM),A (Fold activation >200%)
O=C(Nc1nccs1)c1cc(F)cc2nc(-c3cc(F)ccc3C(F)F)[nH]c12 [Compound 835],A (EC1.5<1.0 uM),A (Fold activation >200%)
Cc1cnc(NC(=O)c2cc(F)cc3nc(-c4cc(F)ccc4C(F)F)[nH]c23)s1 [Compound 836],A (EC1.5<1.0 uM),A (Fold activation >200%)
O=C(Nc1ccccn1)c1cc(F)cc2nc(-c3cc(F)ccc3C(F)F)[nH]c12 [Compound 837],A (EC1.5<1.0 uM),A (Fold activation >200%)
"O=C(Nc1ccccn1)c1cccc2[nH]c(-c3ccc(CN4CCCC4)cc3C(F)(F)F)nc12 [Compound 838, N-(pyridin-2-yl)-2-(4-(pyrrolidin-1-ylmethyl)-2-(trifluoromethyl)phenyl)-1H-benzo[d]imidazole-4-carboxamide]",A (EC1.5<1.0 uM),A (Fold activation >200%)
O=C(Nc1ccccn1)c1cc(F)cc2[nH]c(-c3ccc(OC[C@@H](O)CO)cc3C(F)F)nc12 [Compound 840],A (EC1.5<1.0 uM),A (Fold activation >200%)

# Now from value to molecule:
EC1.5,Fold Act. (percent maximum fold activation),SMILES
A (EC1.5<1.0 uM),A (Fold activation >200%),O=C(Nc1cccnc1)c1cc(F)cc2[nH]c(-c3ccc(OC[C@@H](O)CO)cc3C(F)F)nc12 [Compound 841]
A (EC1.5<1.0 uM),A (Fold activation >200%),Cc1ncccc1-c1nc2c(C(=O)Nc3nc(CN4CCOCC4)cs3)cccc2[nH]1 [Compound 842]
A (EC1.5<1.0 uM),A (Fold activation >200%),Cc1ccc(-c2nc3c(C(=O)Nc4nc(CN5CCOCC5)cs4)cccc3[nH]2)cn1 [Compound 843]
A (EC1.5<1.0 uM),A (Fold activation >200%),Cc1cc(-c2nc3c(C(=O)Nc4nc(CN5CCOCC5)cs4)cccc3[nH]2)ccn1 [Compound 844]
A (EC1.5<1.0 uM),A (Fold activation >200%),O=C(Nc1nc(CN2CCOCC2)cs1)c1cccc2[nH]c(-c3ccccc3C(F)F)nc12 [Compound 845]
A (EC1.5<1.0 uM),A (Fold activation >200%),O=C(Nc1nc(CN2CCOCC2)cs1)c1cccc2[nH]c(-c3ccc(F)cc3C(F)F)nc12 [Compound 846]
A (EC1.5<1.0 uM),A (Fold activation >200%),Cc1nc(C)c(-c2nc3c(C(=O)Nc4cccc(CN5CCOCC5)n4)cccc3[nH]2)s1 [Compound 847]
A (EC1.5<1.0 uM),A (Fold activation >200%),Cc1nc(C)c(-c2nc3c(C(=O)Nc4nc(CN5CCOCC5)cs4)cccc3[nH]2)s1 [Compound 848]
A (EC1.5<1.0 uM),A (Fold activation >200%),O=C(Nc1nc(CN2CCOCC2)cs1)c1cccc2[nH]c(-c3ccc(Cl)cc3C(F)F)nc12 [Compound 849]
A (EC1.5<1.0 uM),A (Fold activation >200%),O=C(Nc1cccc(CN2CCOCC2)n1)c1cccc2[nH]c(-c3cccnc3)nc12 [Compound 850]
A (EC1.5<1.0 uM),A (Fold activation >200%),O=C(Nc1cccc(CN2CCOCC2)n1)c1cccc2[nH]c(-c3cccc(F)c3)nc12 [Compound 851]
A (EC1.5<1.0 uM),A (Fold activation >200%),O=C(Nc1cccc(CN2CCOCC2)n1)c1cccc2[nH]c(-c3cc(F)cc(F)c3)nc12 [Compound 852]
A (EC1.5<1.0 uM),A (Fold activation >200%),O=C(Nc1cccc(CN2CCOCC2)n1)c1cccc2[nH]c(-c3cccc(Cl)c3)nc12 [Compound 853]
A (EC1.5<1.0 uM),A (Fold activation >200%),O=C(Nc1cccc(CN2CCOCC2)n1)c1cccc2[nH]c(-c3ccccc3F)nc12 [Compound 854]
